We go through four compounds from patent US6576656B1, “Oxindole derivative” (Sumitomo Pharmaceuticals Co., Ltd., priority 1998, dated 2003).

Where two headings read alike, the source gives them in different places.

For one assay, the system named is rat pituitary cells. Briefly: growth hormone releasing activity from rat pituitary cells in vitro (GH measured by RIA). It counts as cell-based. The note with it: read-out: EC50 (GH releasing efficacy). Here is the method: Compounds of the present invention were evaluated for their growth hormone releasing activity from rat pituitary cells in vitro in accordance with the method described in the literature (R. G. Smith et al., Science, 260, 1640 (1993)). Pituitary glands removed from 7-week-old Wistar/ST male rats were washed with HBSS (Hank's balanced salt solution) three times and minced into small pieces (ca. 1 mm^2) using a pair of scissors. […] An enzyme solution (0.1 mL per a pituitary gland) was added and the cell dispersion was carried out in a water bath at 37° C. for ca 20-30 min, during which time the digested mixture was mixed by successive up-take and down-take of the suspension using a pipette, every 5 minutes. The resulting cell suspension was centrifuged at 1200 rpm for 2-3 min at room temperature and the supernatant fluid was discarded. A cultured medium was added and the resulting cell suspension was again centrifuged at 1200 rpm for 2-3 min at room temperature and the supernatant fluid was discarded. This procedure was repeated another 2 times. […] The culture medium was discarded and an assay medium (0.1 mL) was added. The incubation was continued for 1.5 h and the cells were washed with the assay medium. […] The supernatant fluid was recovered and the GH content present was measured by RIA (radioimmunoassay). An aliquot of the solution was diluted to 0.05 mL with a RIA buffer which consisted of PBS (pH 7.3) containing 1% BSA, 0.1% NaN3 and 25 mM EDTA. […] Cell membrane fractions containing protein A were added and the mixture was allowed to stand for 20 min and centrifuged. The supernatant fluid was removed and the precipitates were washed with the RIA buffer. The ^125I content in the precipitates was measured. The GH concentration in the sample was calculated from the standard curve made by using the standard GH sample. The EC50 values of the test compounds were determined using recurrent calculation from the following equation, where X is the concentration of the test compound, Y is the GH concentration at the given assay, and B is the EC50 value. C means recurrently calculated GH concentration in the absence of the test compound and A+C means recurrently calculated GH concentration when a maximum amount of the test compound is present. […] The culture medium used here consisted of DMEM (Dulbecco's Modified Eagle's Medium) containing 10% horse serum, 2.5% fetal bovine serum, 1% nonessential amino acids, 0.01% streptomycin and penicillin (100 IU/mL). The cultured medium described above was adjusted to pH 7.3 by adding a 25 mM HEPES buffer and the resulting solution was used as the assay medium. […] The resulting mixture was used as the test compound solution. […]

Assay [1] is described as follows: increase in the weight of rats after oral administration for 9 days. It counts as in vivo, rat. The note with it: 10 mg/kg/day×2 orally for 9 days, 11-week-old F 344/N rats (6/group); p<0.01; distilled water group 13.5±2.3 g. Here is the method: The compound of Example 74 (10 mg/kg/day×2) were administered orally to 11-week-old F 344/N rats (6/group) for 9 days and increase in the weight of each rat was measured.

Usually EC50 stands for the concentration that produces a half-maximal response. In the case of `CCN(CC)CCN1C(=O)C(O)(c2ccccc2Cl)c2c1cc(C(N)=O)cc2C(F)(F)F` (single isomer, unassigned; (+)) [Example 74, (+)-1-(2-Diethylaminoethyl)-4-trifluoromethyl-6-carbamoyl-3-hydroxy-3-(2-chlorophenyl)oxindole], the EC50 in the assay on rat pituitary cells (Rattus norvegicus, 0.25 h) worked out at 0.5 nM. Besides, the “increase in the weight” value in assay [1] came out at 19.5 ± 2.1 g. In the case of `CCN(CC)CCN1C(=O)C(O)(c2ccccc2F)c2c(Br)cccc21` (centres unmarked) [Example 21, 4-Bromo-1-(2-diethylaminoethyl)-3-hydroxy-3-(2-fluorophenyl)oxindole], the EC50 with rat pituitary cells (Rattus norvegicus, 0.25 h) came to 4 nM.

As for `CCN(CC)CCN1C(=O)C(O)(c2ccccc2Cl)c2c1cc(C#CCCC(=O)N1CCOCC1)cc2C(F)(F)F` (centres unmarked) [Example 70, 1-(2-Diethylaminoethyl)-4-trifluoromethyl-6-(4-morpholinocarbonyl-1-butynyl)-3-hydroxy-3-(2-chlorophenyl)oxindole], the EC50 in the assay on rat pituitary cells (Rattus norvegicus, 0.25 h) came to 5 nM. For `CCN(CC)CCN1C(=O)C(O)(c2ccc(Cl)cc2Cl)c2c1cc(C(N)=O)cc2C(F)(F)F` (centres unmarked) [Example 91, 1-(2-Diethylaminoethyl)-4-trifuoromethyl-6-carbamoyl-3-hydroxy-3-(2,4-dichlorophenyl)oxindole], the EC50 in the assay with rat pituitary cells (cultured pituitary cells of 7-week-old Wistar/ST male rats, 15 min at 37° C., GH by RIA) was 1.2 nM.
